Patent US20250163068A1, “COMPOUNDS AND THEIR METHODS OF USE” (Praxis Precision Medicines, Inc., priority 2016, published 2025)
Where two headings read alike, the source gives them in different places. Blank lines part the entries; values can stand above or below the compound they belong to.

Assays:
CYP1A2 = CYP1A2 (Homo sapiens (Human), UniProt P05177); experiment: CYP1A2 inhibition in human liver microsomes; type: in vitro ADME
Protocol: The specific marker metabolites are measured with LC/MS/MS. The remaining enzymatic activities and inhibitory potency IC50 are determined. Microsomes are removed out of the −80° C. freezer to thaw on ice and 20 μL of the substrates solution added to the corresponding wells. […] Then 158 μL of the HLM working solution was added to all wells of the incubation plate. The plate was pre-warmed for about 10 min using a 37° C. water bath. Then 20 μL of the NADPH cofactor solution was added to all incubation wells, mixed and incubated for 10 minutes at 37° C. water bath. The reaction is terminated by adding 400 μL cold stop solution (200 ng/mL Tolbutamide and 200 ng/mL Labetalol in ACN). […] Finally 200 μL of the supernatant was transferred to 100 μL HPLC water, shaken for 10 min and analyzed by LC/MS/MS.

human Nav1.6 (hNav1.6) = human Nav1.6 (hNav1.6) (Homo sapiens (Human), UniProt Q9UQD0); experiment: Inhibition of late sodium current (INaL) at hNav1.6, PatchXpress electrophysiology; type: cell-based; details: 1 μM compound; HEK-293 cells expressing recombinant hNav1.6; late current evoked by 300 nM ATX-II
Sequence of human Nav1.6 (hNav1.6) (Q9UQD0 whole entry): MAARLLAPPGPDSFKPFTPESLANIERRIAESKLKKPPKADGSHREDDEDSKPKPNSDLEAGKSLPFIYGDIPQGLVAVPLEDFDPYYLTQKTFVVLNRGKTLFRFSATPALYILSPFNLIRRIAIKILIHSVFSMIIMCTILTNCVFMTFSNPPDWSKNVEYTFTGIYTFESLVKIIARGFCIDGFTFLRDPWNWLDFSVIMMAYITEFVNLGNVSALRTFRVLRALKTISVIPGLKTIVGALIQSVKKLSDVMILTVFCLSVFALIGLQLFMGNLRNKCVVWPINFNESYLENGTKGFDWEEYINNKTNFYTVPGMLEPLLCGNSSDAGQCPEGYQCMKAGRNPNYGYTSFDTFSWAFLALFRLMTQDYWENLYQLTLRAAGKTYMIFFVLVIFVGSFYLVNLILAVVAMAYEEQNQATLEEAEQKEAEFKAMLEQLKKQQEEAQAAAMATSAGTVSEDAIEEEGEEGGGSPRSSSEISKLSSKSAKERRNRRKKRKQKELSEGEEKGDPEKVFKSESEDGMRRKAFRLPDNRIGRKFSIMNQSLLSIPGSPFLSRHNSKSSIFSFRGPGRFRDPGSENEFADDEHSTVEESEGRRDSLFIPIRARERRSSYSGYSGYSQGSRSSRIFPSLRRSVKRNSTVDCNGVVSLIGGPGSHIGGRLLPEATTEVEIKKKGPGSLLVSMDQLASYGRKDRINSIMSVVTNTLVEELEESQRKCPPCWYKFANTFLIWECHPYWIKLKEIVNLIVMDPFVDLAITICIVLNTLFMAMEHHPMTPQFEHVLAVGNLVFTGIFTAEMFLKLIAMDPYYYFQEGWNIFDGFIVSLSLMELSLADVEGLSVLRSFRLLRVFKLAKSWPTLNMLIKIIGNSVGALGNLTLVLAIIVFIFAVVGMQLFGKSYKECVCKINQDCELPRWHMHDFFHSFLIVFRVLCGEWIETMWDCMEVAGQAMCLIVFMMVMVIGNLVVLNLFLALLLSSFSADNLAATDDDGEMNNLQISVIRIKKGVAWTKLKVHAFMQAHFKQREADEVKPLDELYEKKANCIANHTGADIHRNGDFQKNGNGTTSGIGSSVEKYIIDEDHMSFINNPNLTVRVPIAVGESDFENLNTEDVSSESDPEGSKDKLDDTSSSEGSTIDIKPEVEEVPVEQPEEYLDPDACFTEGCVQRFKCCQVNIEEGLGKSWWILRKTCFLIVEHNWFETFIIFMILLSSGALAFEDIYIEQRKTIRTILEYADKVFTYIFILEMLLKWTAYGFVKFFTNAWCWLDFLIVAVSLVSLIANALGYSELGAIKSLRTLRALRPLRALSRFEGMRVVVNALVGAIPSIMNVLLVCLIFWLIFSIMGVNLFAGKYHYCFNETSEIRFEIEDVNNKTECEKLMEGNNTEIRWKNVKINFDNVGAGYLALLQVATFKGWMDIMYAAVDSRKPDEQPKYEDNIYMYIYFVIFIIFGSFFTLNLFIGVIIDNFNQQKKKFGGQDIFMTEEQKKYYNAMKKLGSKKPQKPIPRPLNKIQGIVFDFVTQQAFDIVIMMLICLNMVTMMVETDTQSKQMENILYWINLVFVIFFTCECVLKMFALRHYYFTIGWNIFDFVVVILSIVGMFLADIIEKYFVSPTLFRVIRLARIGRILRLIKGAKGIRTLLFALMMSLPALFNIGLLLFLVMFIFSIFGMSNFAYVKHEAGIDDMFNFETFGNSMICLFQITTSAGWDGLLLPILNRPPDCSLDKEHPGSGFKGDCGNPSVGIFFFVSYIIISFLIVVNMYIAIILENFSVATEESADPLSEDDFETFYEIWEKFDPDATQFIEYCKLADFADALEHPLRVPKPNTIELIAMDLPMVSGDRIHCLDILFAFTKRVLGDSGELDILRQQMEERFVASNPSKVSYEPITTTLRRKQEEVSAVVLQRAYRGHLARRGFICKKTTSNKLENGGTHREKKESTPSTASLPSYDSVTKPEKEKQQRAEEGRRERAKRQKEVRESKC
Protocol: Functional characterization of exemplary compounds to modulate INaL expressed by the Nav1.6 voltage-gated sodium channel was accomplished using the PatchXpress™ high throughput electrophysiology platform (Molecular Devices, Sunnyvale, CA). HEK-293 cells expressing recombinant, human Nav1.6 (hNav1.6)were grown in DMEM/high-glucose Dulbecco's modified, 10% FBS, 2 mM sodium pyruvate, 10 mM HEPES and 400 μg/mL G418. Cells were grown to 50%-80% confluency prior to harvesting. […] The onboard liquid handling facility of the PatchXpress was used for dispensing cells and applying test compounds. Nav late currents were evoked by the application of 300 nM ATX-II. […] INaL amplitude and stability were determined by analyzing the mean current amplitude over the final 20 ms of the test pulse. […] Percent steady-state inhibition of INaL was calculated as: [(INaL_compound)/(INaL_control)]*100, where INaL_compound and INaL_control represent INaL recorded in the presence or absence of compound, respectively.

[1] = rat, in vivo, iv, 0.5 mg/kg
Protocol: (§1) The IV dosing solution was prepared freshly on the dosing day. Test article (0.5 mg/kg) was prepared in a vehicle, for example, consisting of 5% DMSO/5% solutol/90% water. The concentrations of test article in all dosing solutions were determined by HPLC/UV. Three male Sprague-Dawley rats were used in this study. The animals were confirmed healthy before being assigned to the study. Each animal was given a unique identification number which was marked on the tail or the ear, and written on the cage card. All animals were fasted overnight before dosing and the food was returned at 4 hours post dosing. Water was provided to all animals ad libitum during the fasting period. Animals were weighed prior to dose administration on the day of dosing for calculating the actual dose volume. The body weights were in the range from 212 g to 223 g for males. All animals received test article by single intravenous bolus administration at 0.5 mg/kg. Approximately 0.2 mL blood was collected at each time point via jugular vein from each study animal. […] All blood samples were transferred into pre-labeled plastic micro centrifuge tubes and mixed with the pre-loaded anti-coagulant K2EDTA (5 μL, 0.5 M). Plasma samples were then prepared by centrifuging the blood samples. All plasma samples were then quickly frozen over dry ice and kept at −60° C. or lower until LC/MS/MS analysis. The concentrations of test article in plasma were determined by using a quantitative bioanalytical LC/MS/MS method. The lower limit of quantitation (LLOQ) for test article in plasma was 1 ng/mL, and the upper limit of quantitation (ULOQ) in plasma was 3000 ng/mL. The plasma concentration of test article in rats was subjected to a non compartmental pharmacokinetic analysis by using the Phoenix WinNonlin software (version 6.3, Pharsight, Mountain View, CA).
(§2) The linear/log trapezoidal rule was applied in obtaining the PK parameters.

[2] = PK rat clearance experiment; details: male Sprague-Dawley rats, single intravenous bolus 0.5 mg/kg, plasma
Protocol: as §1, §2

[3] = pooled human liver microsomes, substrate Phenacetin, read-out: CYP1A2 IC50 mean

Sequence of CYP1A2 (P05177 whole entry): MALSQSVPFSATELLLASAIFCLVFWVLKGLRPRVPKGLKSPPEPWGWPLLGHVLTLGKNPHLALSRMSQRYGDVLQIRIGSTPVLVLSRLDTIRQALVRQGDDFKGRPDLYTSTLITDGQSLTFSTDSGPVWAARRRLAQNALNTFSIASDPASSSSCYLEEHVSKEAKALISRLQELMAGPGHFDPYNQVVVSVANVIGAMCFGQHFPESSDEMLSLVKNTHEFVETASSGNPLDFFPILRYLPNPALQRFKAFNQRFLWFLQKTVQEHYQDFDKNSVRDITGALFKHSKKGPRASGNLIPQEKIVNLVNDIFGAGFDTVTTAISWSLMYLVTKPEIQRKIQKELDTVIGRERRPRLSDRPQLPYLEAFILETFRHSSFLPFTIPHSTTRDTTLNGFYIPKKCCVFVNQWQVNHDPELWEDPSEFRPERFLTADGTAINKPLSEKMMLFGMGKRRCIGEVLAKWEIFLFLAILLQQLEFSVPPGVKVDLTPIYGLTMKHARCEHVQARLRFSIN

Structure (SMILES): FC(F)c1nnc2cnc(-c3ccc(OC(F)(F)F)cc3)cn12 [Compound 47]
- IC50 (CYP1A2; microsomes): < 1000 nM

Structure (SMILES): C[C@@H](Oc1ncc(-c2cn3c(C(F)F)nnc3cn2)cc1F)C(F)(F)F [Compound 134]
- INaL v1.6 (1 μM, % Inhibition) (human Nav1.6 (hNav1.6)): C (inhibition of greater than 70%)
- Clearance [1]: 10.9 mL/min/kg
- T1/2 [1]: 2.6 h
- IC50 (CYP1A2; microsomes): > 30000 nM

Structure (SMILES): FC(F)(F)c1ccc(-c2ccc3nnc(C(F)(F)F)n3n2)cc1 [Compound 1]
- IC50 (CYP1A2; microsomes): < 1000 nM

Structure (SMILES): FC(F)(F)Oc1ccc(-c2ccc3nnc(C4CC4(F)F)n3n2)cc1 (stereo not drawn) [Compound 46]
- INaL v1.6 (1 μM, % Inhibition) (human Nav1.6 (hNav1.6)): C (inhibition of greater than 70%)
- IC50 (CYP1A2; [3]): 1000 to 15000 nM
- Clearance [2]: 4.7 mL/min/kg
- T1/2 [2]: 4.5 h

Structure (SMILES): Fc1cc(-c2cn3c(C(F)F)nnc3cn2)cnc1OCC(F)(F)F [Compound 68]
- INaL v1.6 (1 μM, % Inhibition) (human Nav1.6 (hNav1.6)): B (inhibition of between about 30% to about 70%)
- IC50 (CYP1A2; [3]): > 30000 nM
- Clearance [2]: 15.8 mL/min/kg
- T1/2 [2]: 1.5 h

Structure (SMILES): COc1cc(OC(F)(F)F)ccc1-c1cn2c(C(F)F)nnc2cn1 [Compound 48]
- IC50 (CYP1A2; microsomes): < 1000 nM

Structure (SMILES): Fc1cc(-c2cn3c(C(F)(F)F)nnc3cn2)cnc1OC1CC(F)(F)C1 [Compound 84]
- INaL v1.6 (1 μM, % Inhibition) (human Nav1.6 (hNav1.6)): C (inhibition of greater than 70%)
- IC50 (CYP1A2; [3]): 1000 to 15000 nM
- Clearance [2]: 21.9 mL/min/kg
- T1/2 [2]: 2.1 h

The remaining lines, values ahead:

- IC50 (CYP1A2; [3]): < 1000 nM
Structure (SMILES): FC(F)(F)Oc1ccc(-c2cn3c(C(F)(F)F)nnc3cn2)cc1 [Compound 56]

- IC50 (CYP1A2; microsomes): < 1000 nM
Structure (SMILES): Fc1cc(C(F)(F)F)ccc1-c1cn2c(C(F)(F)F)nnc2cn1 [Compound 76]

- IC50 (CYP1A2; microsomes): < 1000 nM
Structure (SMILES): FC(F)Oc1ccc(-c2ccc3nnc(C(F)(F)F)n3n2)cc1 [Compound 116]

- IC50 (CYP1A2; microsomes): < 1000 nM
Structure (SMILES): COC(F)(F)c1nnc2cnc(-c3ccc(OC(F)(F)F)cc3)cn12 [Compound 97]

- IC50 (CYP1A2; microsomes): < 1000 nM
Structure (SMILES): Fc1cc(-c2cn3c(C(F)(F)F)nnc3cn2)ccc1OC(F)(F)F [Compound 79]

- IC50 (CYP1A2; microsomes): < 1000 nM
Structure (SMILES): FC(F)(F)c1ccc(-c2cn3c(C(F)(F)F)nnc3cn2)cc1 [Compound 62]

- IC50 (CYP1A2; microsomes): < 1000 nM
Structure (SMILES): COc1cc(OC(F)(F)F)ccc1-c1cn2c(C(F)(F)F)nnc2cn1 [Compound 70]

- IC50 (CYP1A2; microsomes): < 1000 nM
Structure (SMILES): FC(F)(F)OCc1ccc(-c2ccc3nnc(C(F)(F)F)n3n2)cc1 [Compound 118]

- IC50 (CYP1A2; microsomes): < 1000 nM
Structure (SMILES): Cc1cc(-c2ccc3nnc(C(F)(F)F)n3n2)ccc1C(F)(F)F [Compound 98]

- INaL v1.6 (1 μM, % Inhibition) (human Nav1.6 (hNav1.6)): C (inhibition of greater than 70%)
- IC50 (CYP1A2; microsomes): 1000 to 15000 nM
Structure (SMILES): COCc1cc(OC(F)(F)F)ccc1-c1cn2c(C(F)(F)F)nnc2cn1 [Compound 66]
